{"source": "ChEMBL document CHEMBL1201862", "about": "“PubChem BioAssay data set” (2004)", "assay_in_all_cases": "DTP human tumour cell line panel, 48 h", "key": {"CAKI-1": {"system": "CAKI-1"}, "COLO 205": {"system": "COLO 205"}, "EKVX": {"system": "EKVX"}, "HCT-15": {"system": "HCT-15"}, "HL-60": {"system": "HL-60"}, "HOP-92": {"system": "HOP-92"}, "Hs-578T": {"system": "Hs-578T"}, "K562": {"system": "K562"}, "M14": {"system": "M14"}, "MCF7": {"system": "MCF7"}, "MDA-MB-231": {"system": "MDA-MB-231"}, "NCI-H226": {"system": "NCI-H226"}, "OVCAR-5": {"system": "OVCAR-5"}, "PC-3": {"system": "PC-3"}, "SF-539": {"system": "SF-539"}, "SK-MEL-28": {"system": "SK-MEL-28"}, "SR": {"system": "SR"}, "SW-620": {"system": "SW-620"}, "RXF 393": {"system": "RXF 393"}}, "note": "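Growth conditions: 96-well plates. Treatment: test compound, 48 hours, 5 concentrations. Analysis: linear interpolation between bracketing concentrations; unreached endpoints set to highest concentration. GI50: concentration for 50% inhibition of growth.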 Calls of active or inactive are those of the source. No stated cut-off is given here; in the data, active = GI50 up to about 1.1 µM and inactive = higher."}
{"compound": "CNC(=O)C1(N)c2ccccc2C=Cc2ccccc21", "values": [{"measurement": "GI50", "setting": "CAKI-1", "result": "> 100 µM (inactive)"}, {"measurement": "GI50", "setting": "COLO 205", "result": "> 100 µM (inactive)"}, {"measurement": "GI50", "setting": "EKVX", "result": "> 100 µM (inactive)"}, {"measurement": "GI50", "setting": "HCT-15", "result": "> 100", "unit": "µM"}, {"measurement": "GI50", "setting": "HL-60", "result": "> 100 µM (inactive)"}, {"measurement": "GI50", "setting": "HOP-92", "result": "> 100 µM (inactive)"}, {"measurement": "GI50", "setting": "Hs-578T", "result": "> 100 µM (inactive)"}, {"measurement": "GI50", "setting": "K562", "result": "> 100 µM (inactive)"}, {"measurement": "GI50", "setting": "M14", "result": "> 100 µM (inactive)"}, {"measurement": "GI50", "setting": "MCF7", "result": "> 100 µM (inactive)"}, {"measurement": "GI50", "setting": "MDA-MB-231", "result": "> 100 µM (inactive)"}, {"measurement": "GI50", "setting": "NCI-H226", "result": "> 100 µM (inactive)"}, {"measurement": "GI50", "setting": "OVCAR-5", "result": "> 100 µM (inactive)"}, {"measurement": "GI50", "setting": "PC-3", "result": "> 100 µM (inactive)"}, {"measurement": "GI50", "setting": "SF-539", "result": "> 100 µM (inactive)"}, {"measurement": "GI50", "setting": "SK-MEL-28", "result": "> 100 µM (inactive)"}, {"measurement": "GI50", "setting": "SR", "result": "> 100 µM (inactive)"}, {"measurement": "GI50", "setting": "SW-620", "result": "> 100 µM (inactive)"}]}
{"compound": "O=C(/C=C/c1ccc(O)c(O)c1)c1cc(O)cc(O)c1", "values": [{"measurement": "GI50", "setting": "CAKI-1", "result": "> 100 µM (inactive)"}, {"measurement": "GI50", "setting": "COLO 205", "result": "17.2 µM (inactive)"}, {"measurement": "GI50", "setting": "EKVX", "result": "20.6 µM (inactive)"}, {"measurement": "GI50", "setting": "HCT-15", "result": 15.7, "unit": "µM"}, {"measurement": "GI50", "setting": "HL-60", "result": "2.25 µM (inactive)"}, {"measurement": "GI50", "setting": "HOP-92", "result": "13 µM (inactive)"}, {"measurement": "GI50", "setting": "Hs-578T", "result": "11 µM (inactive)"}, {"measurement": "GI50", "setting": "M14", "result": "14 µM (inactive)"}, {"measurement": "GI50", "setting": "MCF7", "result": "3.55 µM (inactive)"}, {"measurement": "GI50", "setting": "MDA-MB-231", "result": "12.8 µM (inactive)"}, {"measurement": "GI50", "setting": "NCI-H226", "result": "14.8 µM (inactive)"}, {"measurement": "GI50", "setting": "OVCAR-5", "result": "14.6 µM (inactive)"}, {"measurement": "GI50", "setting": "PC-3", "result": "13.5 µM (inactive)"}, {"measurement": "GI50", "setting": "RXF 393", "result": "10.4 µM (inactive)"}, {"measurement": "GI50", "setting": "SF-539", "result": "6.52 µM (inactive)"}, {"measurement": "GI50", "setting": "SK-MEL-28", "result": "16.4 µM (inactive)"}, {"measurement": "GI50", "setting": "SR", "result": "5.24 µM (inactive)"}]}
{"compound": "CCOC(=O)c1c(NC(=O)c2ccccc2)sc2c1CCC2", "values": [{"measurement": "GI50", "setting": "CAKI-1", "result": "> 100 µM (inactive)"}, {"measurement": "GI50", "setting": "COLO 205", "result": "> 100 µM (inactive)"}, {"measurement": "GI50", "setting": "EKVX", "result": "> 100 µM (inactive)"}, {"measurement": "GI50", "setting": "HCT-15", "result": "> 100", "unit": "µM"}, {"measurement": "GI50", "setting": "HL-60", "result": "> 100 µM (inactive)"}, {"measurement": "GI50", "setting": "Hs-578T", "result": "> 100 µM (inactive)"}, {"measurement": "GI50", "setting": "K562", "result": "> 100 µM (inactive)"}, {"measurement": "GI50", "setting": "M14", "result": "> 100 µM (inactive)"}, {"measurement": "GI50", "setting": "MCF7", "result": "> 100 µM (inactive)"}, {"measurement": "GI50", "setting": "MDA-MB-231", "result": "> 100 µM (inactive)"}, {"measurement": "GI50", "setting": "NCI-H226", "result": "> 100 µM (inactive)"}, {"measurement": "GI50", "setting": "OVCAR-5", "result": "> 100 µM (inactive)"}, {"measurement": "GI50", "setting": "PC-3", "result": "> 100 µM (inactive)"}, {"measurement": "GI50", "setting": "RXF 393", "result": "> 100 µM (inactive)"}, {"measurement": "GI50", "setting": "SF-539", "result": "> 100 µM (inactive)"}, {"measurement": "GI50", "setting": "SR", "result": "> 100 µM (inactive)"}]}
{"compound": "O=C1CS(=O)(=O)C(c2cccc(Oc3ccccc3)c2)N1c1cccc(Cl)c1Cl", "note": "(stereo unspecified)", "values": [{"measurement": "GI50", "setting": "CAKI-1", "result": "31.3 µM (inactive)"}, {"measurement": "GI50", "setting": "COLO 205", "result": "26.9 µM (inactive)"}, {"measurement": "GI50", "setting": "EKVX", "result": "23.8 µM (inactive)"}, {"measurement": "GI50", "setting": "HL-60", "result": "31 µM (inactive)"}, {"measurement": "GI50", "setting": "HOP-92", "result": "7.26 µM (inactive)"}, {"measurement": "GI50", "setting": "Hs-578T", "result": "29.8 µM (inactive)"}, {"measurement": "GI50", "setting": "K562", "result": "16.6 µM (inactive)"}, {"measurement": "GI50", "setting": "M14", "result": "39.1 µM (inactive)"}, {"measurement": "GI50", "setting": "MCF7", "result": "6.11 µM (inactive)"}, {"measurement": "GI50", "setting": "MDA-MB-231", "result": "23.8 µM (inactive)"}, {"measurement": "GI50", "setting": "NCI-H226", "result": "35.7 µM (inactive)"}, {"measurement": "GI50", "setting": "OVCAR-5", "result": "47.5 µM (inactive)"}, {"measurement": "GI50", "setting": "PC-3", "result": "26.4 µM (inactive)"}, {"measurement": "GI50", "setting": "RXF 393", "result": "25.1 µM (inactive)"}, {"measurement": "GI50", "setting": "SF-539", "result": "20.8 µM (inactive)"}, {"measurement": "GI50", "setting": "SK-MEL-28", "result": "51.4 µM (inactive)"}, {"measurement": "GI50", "setting": "SR", "result": "18.7 µM (inactive)"}, {"measurement": "GI50", "setting": "SW-620", "result": "28.8 µM (inactive)"}]}
{"compound": "N=C(CC(=O)Nc1ccccn1)c1ccccc1", "values": [{"measurement": "GI50", "setting": "CAKI-1", "result": "> 100 µM (inactive)"}, {"measurement": "GI50", "setting": "COLO 205", "result": "> 100 µM (inactive)"}, {"measurement": "GI50", "setting": "EKVX", "result": "> 100 µM (inactive)"}, {"measurement": "GI50", "setting": "HCT-15", "result": "> 100", "unit": "µM"}, {"measurement": "GI50", "setting": "HL-60", "result": "> 100 µM (inactive)"}, {"measurement": "GI50", "setting": "HOP-92", "result": "> 100 µM (inactive)"}, {"measurement": "GI50", "setting": "Hs-578T", "result": "> 100 µM (inactive)"}, {"measurement": "GI50", "setting": "K562", "result": "> 100 µM (inactive)"}, {"measurement": "GI50", "setting": "M14", "result": "> 100 µM (inactive)"}, {"measurement": "GI50", "setting": "MCF7", "result": "> 100 µM (inactive)"}, {"measurement": "GI50", "setting": "MDA-MB-231", "result": "> 100 µM (inactive)"}, {"measurement": "GI50", "setting": "NCI-H226", "result": "> 100 µM (inactive)"}, {"measurement": "GI50", "setting": "OVCAR-5", "result": "> 100 µM (inactive)"}, {"measurement": "GI50", "setting": "PC-3", "result": "> 100 µM (inactive)"}, {"measurement": "GI50", "setting": "RXF 393", "result": "> 100 µM (inactive)"}, {"measurement": "GI50", "setting": "SF-539", "result": "> 100 µM (inactive)"}, {"measurement": "GI50", "setting": "SK-MEL-28", "result": "> 100 µM (inactive)"}, {"measurement": "GI50", "setting": "SR", "result": "> 100 µM (inactive)"}, {"measurement": "GI50", "setting": "SW-620", "result": "> 100 µM (inactive)"}]}
{"compound": "Cn1c(N/N=C/c2ccccc2)nc(-c2ccc3c(c2)OCO3)c(C#N)c1=O", "values": [{"measurement": "GI50", "setting": "CAKI-1", "result": "99.3 µM (inactive)"}, {"measurement": "GI50", "setting": "COLO 205", "result": "58.3 µM (inactive)"}, {"measurement": "GI50", "setting": "EKVX", "result": "70.6 µM (inactive)"}, {"measurement": "GI50", "setting": "HCT-15", "result": 36.5, "unit": "µM"}, {"measurement": "GI50", "setting": "HL-60", "result": "39.9 µM (inactive)"}, {"measurement": "GI50", "setting": "HOP-92", "result": "2.85 µM (inactive)"}, {"measurement": "GI50", "setting": "Hs-578T", "result": "48.5 µM (inactive)"}, {"measurement": "GI50", "setting": "K562", "result": "87.3 µM (inactive)"}, {"measurement": "GI50", "setting": "M14", "result": "> 100 µM (inactive)"}, {"measurement": "GI50", "setting": "MCF7", "result": "> 100 µM (inactive)"}, {"measurement": "GI50", "setting": "MDA-MB-231", "result": "14 µM (inactive)"}, {"measurement": "GI50", "setting": "OVCAR-5", "result": "> 100 µM (inactive)"}, {"measurement": "GI50", "setting": "PC-3", "result": "56.8 µM (inactive)"}, {"measurement": "GI50", "setting": "RXF 393", "result": "81.8 µM (inactive)"}, {"measurement": "GI50", "setting": "SF-539", "result": "> 100 µM (inactive)"}, {"measurement": "GI50", "setting": "SK-MEL-28", "result": "> 100 µM (inactive)"}, {"measurement": "GI50", "setting": "SR", "result": "25.5 µM (inactive)"}, {"measurement": "GI50", "setting": "SW-620", "result": "> 100 µM (inactive)"}]}
